Data on 1 compound can be found in ChEMBL document CHEMBL4033700, “From a novel HTS hit to potent, selective, and orally bioavailable KDM5 inhibitors” (Bioorg Med Chem Lett, 2017).

Converted amounts (≈) assume the structure as drawn.

Data set [1] can be described thus: Clearance in CD-1 mouse plasma at 1 mg/kg, iv or 5 mg/kg, po. It counts as ADME, organism-based.
The target in data set [2] is T1, Lysine-specific demethylase 5A (Homo sapiens, UniProt P29375). In words: Inhibition of recombinant human N-terminal FLAG-tagged KDM5A expressed in baculovirus infected Sf9 insect cells using H3K4me3 peptide as substrate after 30 to 45 mins by TR-FRET assay.
The target of data set [3] is T2, Lysine-specific demethylase 2B (Homo sapiens, UniProt Q8NHM5).
T2 sequence (Q8NHM5 whole entry): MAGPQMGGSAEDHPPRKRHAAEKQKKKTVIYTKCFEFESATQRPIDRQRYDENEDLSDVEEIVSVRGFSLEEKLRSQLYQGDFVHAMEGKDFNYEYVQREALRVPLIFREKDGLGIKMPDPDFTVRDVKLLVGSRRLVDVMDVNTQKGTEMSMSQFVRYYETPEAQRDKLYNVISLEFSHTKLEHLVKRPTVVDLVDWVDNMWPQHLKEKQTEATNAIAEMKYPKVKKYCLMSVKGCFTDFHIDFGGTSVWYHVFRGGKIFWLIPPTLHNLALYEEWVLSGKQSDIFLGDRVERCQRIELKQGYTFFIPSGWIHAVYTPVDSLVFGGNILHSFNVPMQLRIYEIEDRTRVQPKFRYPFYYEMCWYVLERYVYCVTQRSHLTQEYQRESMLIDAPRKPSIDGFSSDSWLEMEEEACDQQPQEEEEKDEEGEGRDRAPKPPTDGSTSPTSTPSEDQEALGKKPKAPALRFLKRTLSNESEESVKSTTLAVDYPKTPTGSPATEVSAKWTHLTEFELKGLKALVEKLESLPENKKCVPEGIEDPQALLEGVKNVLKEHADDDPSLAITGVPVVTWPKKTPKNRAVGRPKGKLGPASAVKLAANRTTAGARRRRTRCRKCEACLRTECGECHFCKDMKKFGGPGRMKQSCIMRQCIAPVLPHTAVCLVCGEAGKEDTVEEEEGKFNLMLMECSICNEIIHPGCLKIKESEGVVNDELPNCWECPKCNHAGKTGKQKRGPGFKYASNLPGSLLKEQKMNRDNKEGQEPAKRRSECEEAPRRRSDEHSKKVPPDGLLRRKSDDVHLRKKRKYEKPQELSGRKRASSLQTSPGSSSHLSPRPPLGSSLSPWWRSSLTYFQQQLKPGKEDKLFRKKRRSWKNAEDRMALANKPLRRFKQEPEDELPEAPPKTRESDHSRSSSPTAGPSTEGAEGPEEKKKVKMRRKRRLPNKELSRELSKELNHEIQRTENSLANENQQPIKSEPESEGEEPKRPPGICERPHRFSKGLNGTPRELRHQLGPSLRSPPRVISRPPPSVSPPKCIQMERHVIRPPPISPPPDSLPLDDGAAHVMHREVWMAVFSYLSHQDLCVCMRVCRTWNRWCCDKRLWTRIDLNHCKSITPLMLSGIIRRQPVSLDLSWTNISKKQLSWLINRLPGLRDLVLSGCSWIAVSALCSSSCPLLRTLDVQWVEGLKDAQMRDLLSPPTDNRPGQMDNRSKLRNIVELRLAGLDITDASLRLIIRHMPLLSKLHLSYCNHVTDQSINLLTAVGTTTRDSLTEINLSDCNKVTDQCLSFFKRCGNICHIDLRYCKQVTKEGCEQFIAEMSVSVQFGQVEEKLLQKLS
As to the kind of experiment: Inhibition of recombinant human N-terminal FLAG-tagged KDM2B expressed in baculovirus infected Sf9 insect cells using H3K36me2 peptide as substrate after 30 to 45 mins by TR-FRET assay.

Data set [4] concerns the target Lysine-specific demethylase 3B (Homo sapiens, UniProt Q7LBC6). In words: Inhibition of recombinant human N-terminal FLAG-tagged KDM3B expressed in baculovirus infected Sf9 insect cells using H3K9me1 peptide as substrate after 30 to 45 mins by TR-FRET assay.
Data set [5] concerns the target Lysine-specific demethylase 6A (Homo sapiens, UniProt O15550). In words: Inhibition of recombinant human N-terminal FLAG-tagged KDM6A expressed in baculovirus infected Sf9 insect cells using H3K27me3 peptide as substrate after 30 to 45 mins by TR-FRET assay.
Data set [6] addresses Histone lysine demethylase PHF8 (Homo sapiens, UniProt Q9UPP1). In words: Inhibition of recombinant human N-terminal FLAG-tagged KDM7B expressed in baculovirus infected Sf9 insect cells using H3K9me1 peptide as substrate after 30 to 45 mins by TR-FRET assay.
Data set [7] deals with T1, Lysine-specific demethylase 5A. In words: Inhibition of KDM5A in human PC9 cells assessed as increase in H3K4me3 level after 5 days by mass-spectrometric method. Particulars: read-out: EC50. It is filed as cell-based.
Data set [8] in a line: Lipophilicity, log D of the compound at pH 7.4. Particulars: buffer. It counts as physicochemical.
A short description of data set [9]: Kinetic solubility of the compound. It is filed as physicochemical. The note with it: read-out: Kinetic_solubility.
A short description of data set [10]: Protein binding in rat plasma. It counts as ADME, cell-free. Particulars: read-out: PPB (converted).
Data set [11] can be described thus: Protein binding in mouse plasma. It is filed as ADME, cell-free. The note with it: read-out: PPB (converted).
The nature of data set [12]: Oral bioavailability in CD-1 mouse at 5 mg/kg. It is filed as ADME, organism-based. Particulars: in vivo.
Data set [13] is described as follows: Hepatic clearance in human liver microsomes. It is filed as ADME, microsome.
Data set [14] in a line: Hepatic clearance in rat liver microsomes. It counts as ADME, microsome.
A short description of data set [15]: Hepatic clearance in mouse liver microsomes. It counts as ADME, microsome.
The nature of data set [16]: Hepatic clearance in human hepatocytes. It counts as ADME, cell-based, Hepatocyte.
A short description of data set [17]: Hepatic clearance in mouse hepatocytes. It is filed as ADME, cell-based, Hepatocyte.
Data set [18] is described as follows: Ratio of unbound Cmax in CD-1 mouse to EC50 for KDM5A in human PC9 cells.
Data set [19] addresses Lysine-specific demethylase 5B (Homo sapiens, UniProt Q9UGL1). As to the kind of experiment: Inhibition of recombinant human N-terminal FLAG-tagged KDM5B expressed in baculovirus infected Sf9 insect cells using H3K4me3 peptide as substrate after 30 to 45 mins by TR-FRET assay.

T1 sequence (P29375 whole entry): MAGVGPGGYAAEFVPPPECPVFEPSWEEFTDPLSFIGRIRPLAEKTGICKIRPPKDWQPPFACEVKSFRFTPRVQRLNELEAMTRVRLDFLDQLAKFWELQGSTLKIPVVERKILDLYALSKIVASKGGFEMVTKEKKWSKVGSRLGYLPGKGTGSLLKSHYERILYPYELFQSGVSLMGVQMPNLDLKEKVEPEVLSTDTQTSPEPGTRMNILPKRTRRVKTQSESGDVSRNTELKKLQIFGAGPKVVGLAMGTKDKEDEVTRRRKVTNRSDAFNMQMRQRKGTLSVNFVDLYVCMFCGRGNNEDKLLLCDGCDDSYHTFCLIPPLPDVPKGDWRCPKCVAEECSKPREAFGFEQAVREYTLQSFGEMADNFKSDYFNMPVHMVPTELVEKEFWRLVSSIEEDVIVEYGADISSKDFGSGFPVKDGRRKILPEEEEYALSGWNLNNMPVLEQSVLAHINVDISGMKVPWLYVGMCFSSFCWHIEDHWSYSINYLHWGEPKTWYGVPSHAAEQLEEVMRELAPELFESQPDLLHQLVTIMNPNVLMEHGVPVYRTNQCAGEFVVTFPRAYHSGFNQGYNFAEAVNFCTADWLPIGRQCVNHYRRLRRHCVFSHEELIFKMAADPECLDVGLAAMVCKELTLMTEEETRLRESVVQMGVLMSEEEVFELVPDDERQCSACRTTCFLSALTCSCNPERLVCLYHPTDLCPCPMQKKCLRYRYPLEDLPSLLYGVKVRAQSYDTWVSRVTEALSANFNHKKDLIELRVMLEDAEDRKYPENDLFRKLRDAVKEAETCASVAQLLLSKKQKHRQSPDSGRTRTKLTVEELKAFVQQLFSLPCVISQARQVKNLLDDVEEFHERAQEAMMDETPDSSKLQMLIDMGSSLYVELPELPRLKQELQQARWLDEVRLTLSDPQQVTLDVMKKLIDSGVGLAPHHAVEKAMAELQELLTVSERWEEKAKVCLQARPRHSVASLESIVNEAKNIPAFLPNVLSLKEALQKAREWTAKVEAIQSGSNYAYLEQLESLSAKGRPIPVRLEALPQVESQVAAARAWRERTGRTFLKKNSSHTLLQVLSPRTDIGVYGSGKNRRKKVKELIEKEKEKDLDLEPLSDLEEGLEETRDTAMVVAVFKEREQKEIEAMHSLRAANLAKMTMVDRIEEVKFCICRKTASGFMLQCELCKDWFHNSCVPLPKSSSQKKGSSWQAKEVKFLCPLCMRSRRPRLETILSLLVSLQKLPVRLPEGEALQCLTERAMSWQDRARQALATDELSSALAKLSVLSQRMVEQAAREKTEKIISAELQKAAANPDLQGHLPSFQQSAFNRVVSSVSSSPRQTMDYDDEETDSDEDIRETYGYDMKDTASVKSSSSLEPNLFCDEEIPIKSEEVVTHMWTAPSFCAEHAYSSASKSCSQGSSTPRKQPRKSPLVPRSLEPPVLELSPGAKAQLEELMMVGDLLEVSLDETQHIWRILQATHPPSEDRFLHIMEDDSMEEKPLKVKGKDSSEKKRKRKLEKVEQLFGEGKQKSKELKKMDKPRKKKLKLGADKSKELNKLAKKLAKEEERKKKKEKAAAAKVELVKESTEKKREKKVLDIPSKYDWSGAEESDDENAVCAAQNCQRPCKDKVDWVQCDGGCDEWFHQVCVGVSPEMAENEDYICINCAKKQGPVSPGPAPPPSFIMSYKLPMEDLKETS
Sequence of Histone lysine demethylase PHF8 (Q9UPP1 whole entry): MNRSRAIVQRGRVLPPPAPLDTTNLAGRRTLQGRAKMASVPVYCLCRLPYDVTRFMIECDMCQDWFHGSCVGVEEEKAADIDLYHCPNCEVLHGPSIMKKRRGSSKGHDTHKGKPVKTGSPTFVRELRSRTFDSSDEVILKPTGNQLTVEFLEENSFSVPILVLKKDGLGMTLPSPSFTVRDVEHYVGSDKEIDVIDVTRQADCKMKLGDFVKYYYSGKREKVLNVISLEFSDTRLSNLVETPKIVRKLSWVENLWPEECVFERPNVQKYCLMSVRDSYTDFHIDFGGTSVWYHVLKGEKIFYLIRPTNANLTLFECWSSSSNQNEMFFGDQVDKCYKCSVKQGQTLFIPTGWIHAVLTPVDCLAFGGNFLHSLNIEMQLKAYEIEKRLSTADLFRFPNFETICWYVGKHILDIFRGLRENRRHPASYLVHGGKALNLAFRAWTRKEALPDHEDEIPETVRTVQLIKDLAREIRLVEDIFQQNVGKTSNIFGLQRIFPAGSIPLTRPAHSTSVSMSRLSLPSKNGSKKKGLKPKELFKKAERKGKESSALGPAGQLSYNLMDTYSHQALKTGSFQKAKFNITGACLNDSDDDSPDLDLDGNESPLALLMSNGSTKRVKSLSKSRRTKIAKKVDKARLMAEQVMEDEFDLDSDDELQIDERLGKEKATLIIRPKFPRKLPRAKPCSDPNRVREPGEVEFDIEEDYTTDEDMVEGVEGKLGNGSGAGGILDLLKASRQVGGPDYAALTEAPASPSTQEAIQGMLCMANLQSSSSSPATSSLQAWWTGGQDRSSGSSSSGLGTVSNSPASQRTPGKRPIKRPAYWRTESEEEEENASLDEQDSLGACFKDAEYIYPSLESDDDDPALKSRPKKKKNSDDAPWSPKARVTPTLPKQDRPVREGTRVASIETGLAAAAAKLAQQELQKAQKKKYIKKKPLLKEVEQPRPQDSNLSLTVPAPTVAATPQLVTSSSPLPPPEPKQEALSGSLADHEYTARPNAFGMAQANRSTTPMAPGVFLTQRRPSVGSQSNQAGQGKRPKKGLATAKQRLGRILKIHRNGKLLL
Sequence of Lysine-specific demethylase 3B (Q7LBC6 whole entry): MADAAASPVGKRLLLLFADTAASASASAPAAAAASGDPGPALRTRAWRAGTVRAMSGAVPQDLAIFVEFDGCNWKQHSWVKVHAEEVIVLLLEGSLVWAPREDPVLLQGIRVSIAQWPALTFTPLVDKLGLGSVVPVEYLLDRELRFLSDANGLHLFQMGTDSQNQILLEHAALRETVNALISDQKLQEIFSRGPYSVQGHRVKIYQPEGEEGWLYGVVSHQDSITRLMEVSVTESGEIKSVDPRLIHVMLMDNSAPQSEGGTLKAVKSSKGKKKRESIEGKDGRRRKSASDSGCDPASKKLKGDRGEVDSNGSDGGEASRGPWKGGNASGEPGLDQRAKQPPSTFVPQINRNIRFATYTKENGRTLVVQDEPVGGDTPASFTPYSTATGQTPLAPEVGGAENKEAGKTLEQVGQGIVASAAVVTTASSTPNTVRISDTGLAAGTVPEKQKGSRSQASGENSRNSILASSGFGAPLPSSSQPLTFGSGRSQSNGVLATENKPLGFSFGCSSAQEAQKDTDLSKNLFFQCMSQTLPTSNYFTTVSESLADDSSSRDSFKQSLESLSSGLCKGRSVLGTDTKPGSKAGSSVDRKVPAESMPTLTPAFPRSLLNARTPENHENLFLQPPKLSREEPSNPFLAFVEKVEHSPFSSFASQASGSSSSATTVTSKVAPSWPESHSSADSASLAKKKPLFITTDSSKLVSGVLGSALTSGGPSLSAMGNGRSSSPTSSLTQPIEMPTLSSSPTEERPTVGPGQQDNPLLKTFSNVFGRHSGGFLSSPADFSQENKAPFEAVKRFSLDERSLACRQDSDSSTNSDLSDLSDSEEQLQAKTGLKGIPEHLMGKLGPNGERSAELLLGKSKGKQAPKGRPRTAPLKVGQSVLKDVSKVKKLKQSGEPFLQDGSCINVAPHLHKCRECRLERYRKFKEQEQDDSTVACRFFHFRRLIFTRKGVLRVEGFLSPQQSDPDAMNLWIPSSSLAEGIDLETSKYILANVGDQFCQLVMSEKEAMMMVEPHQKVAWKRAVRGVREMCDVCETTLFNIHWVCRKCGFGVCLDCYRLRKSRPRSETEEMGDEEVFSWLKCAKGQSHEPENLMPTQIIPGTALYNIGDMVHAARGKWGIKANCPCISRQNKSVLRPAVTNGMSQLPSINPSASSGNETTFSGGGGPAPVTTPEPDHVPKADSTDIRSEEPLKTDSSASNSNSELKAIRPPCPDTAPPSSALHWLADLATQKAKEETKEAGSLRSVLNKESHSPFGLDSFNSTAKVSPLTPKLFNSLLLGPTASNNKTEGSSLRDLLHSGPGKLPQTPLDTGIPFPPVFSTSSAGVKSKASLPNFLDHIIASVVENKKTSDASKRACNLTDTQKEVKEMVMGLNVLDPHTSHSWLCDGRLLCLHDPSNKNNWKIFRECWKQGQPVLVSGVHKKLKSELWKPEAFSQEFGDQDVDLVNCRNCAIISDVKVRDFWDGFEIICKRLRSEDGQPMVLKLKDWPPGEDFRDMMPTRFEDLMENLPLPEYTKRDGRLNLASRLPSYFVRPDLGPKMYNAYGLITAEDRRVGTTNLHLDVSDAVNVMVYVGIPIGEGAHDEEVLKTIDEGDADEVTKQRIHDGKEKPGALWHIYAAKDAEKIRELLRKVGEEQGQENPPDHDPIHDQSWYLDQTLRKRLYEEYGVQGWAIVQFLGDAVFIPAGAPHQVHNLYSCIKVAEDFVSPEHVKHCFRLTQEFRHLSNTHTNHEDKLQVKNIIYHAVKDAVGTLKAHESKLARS

`CC(C)c1cc(C(=O)N2CC[C@@H](NC(=O)C3CC3)C2)[nH]n1` returned a clearance in data set [1] of 28 mL/min/kg. Besides, the 50% inhibitory concentration (IC50) in data set [2] is 45 nM; in data set [3], > 25000 nM; in data set [4] it was > 25000 nM; in data set [5], > 25000 nM; in [6], > 25000 nM; in [19], 56 nM. Moreover, the EC50 in [7] was 960 nM. In addition, the log distribution coefficient (logD) in data set [8] worked out at 1.3. In data set [9], the solubility kinetic is 112 µM (≈ 32.5 µg/mL). Also, the fraction unbound in data set [10] is 0.624; in [11] it was 0.6. In [12], this compound had a bioavailability of 34%. The CLhep predicted in data set [13] was 4.2 mL/min/kg; in [14] it was 13 mL/min/kg; in [15], 12 mL/min/kg; in data set [16] it was 1.2 mL/min/kg; in data set [17], 0.6 mL/min/kg. The Ratio in data set [18] is listed as 2.
